Test results from article PMC5218480 (PLoS ONE, 2017).

System: MV-4-11 cells
Test: Gene expression microarray analysis (Affymetrix PrimeView) and GSEA
Type: cell-based, human
Parameters: RFU PODN (11730768_x_at) / Fold change /veh PODN (11730768_x_at) / RFU LINC00158 (11744669_a_at) / Fold change /veh LINC00158 (11744669_a_at) / RFU DUSP10 (11751237_a_at) / Fold change /veh DUSP10 (11751237_a_at) / RFU ID3 (11757404_x_at) / Fold change /veh ID3 (11757404_x_at) / RFU PLEKHG5 (11737974_s_at) / Fold change /veh PLEKHG5 (11737974_s_at) / RFU LRRC4B (11730491_at) / Fold change /veh LRRC4B (11730491_at) / RFU GIMAP4 (11747438_a_at) / Fold change /veh GIMAP4 (11747438_a_at) / RFU KRT8 (11758183_x_at) / Fold change /veh KRT8 (11758183_x_at) / RFU CNN1 (11734310_a_at) / Fold change /veh CNN1 (11734310_a_at) / RFU VPS37D (11726825_at) / Fold change /veh VPS37D (11726825_at) / RFU C10orf10 (11716522_x_at) / Fold change /veh C10orf10 (11716522_x_at) / RFU KIR2DL2 /// KIR2DL4 /// KIR2DL5A /// KIR2DL5B /// KIR2DS1 /// KIR2DS2 /// KIR2DS3 /// KIR2DS4 /// KIR3DL3 /// KIR3DL3 /// KIR3DS1 (11738374_at) / Fold change /veh KIR2DL2 /// KIR2DL4 /// KIR2DL5A /// KIR2DL5B /// KIR2DS1 /// KIR2DS2 /// KIR2DS3 /// KIR2DS4 /// KIR3DL3 /// KIR3DL3 /// KIR3DS1 (11738374_at) / RFU C1QL1 (11718748_at) / Fold change /veh C1QL1 (11718748_at) / RFU TMPRSS4 (11747572_a_at) / Fold change /veh TMPRSS4 (11747572_a_at) / RFU HAMP (11756126_x_at) / Fold change /veh HAMP (11756126_x_at) / RFU RNFT2 (11725882_a_at) / Fold change /veh RNFT2 (11725882_a_at) / RFU NR4A2 (11747474_a_at) / Fold change /veh NR4A2 (11747474_a_at) / RFU ABCC12 (11746883_a_at) / Fold change /veh ABCC12 (11746883_a_at) / RFU TMEM136 (11760407_x_at) / Fold change /veh TMEM136 (11760407_x_at) / RFU CLDN22 /// WWC2 (11732394_at) / Fold change /veh CLDN22 /// WWC2 (11732394_at) / RFU HLA-DPB1 (11760878_x_at) / Fold change /veh HLA-DPB1 (11760878_x_at) / RFU SPINT1 (11716480_a_at) / Fold change /veh SPINT1 (11716480_a_at) / RFU GAP43 (11754022_s_at) / Fold change /veh GAP43 (11754022_s_at) / RFU A4GNT (11735810_at) / Fold change /veh A4GNT (11735810_at) / RFU PRB3 (11715151_x_at) / Fold change /veh PRB3 (11715151_x_at) / RFU TUBB4B (11761932_at) / Fold change /veh TUBB4B (11761932_at) / RFU CAPN14 (11732068_a_at) / Fold change /veh CAPN14 (11732068_a_at) / RFU TMCC2 (11721928_a_at) / Fold change /veh TMCC2 (11721928_a_at) / RFU IRGQ (11745062_a_at) / Fold change /veh IRGQ (11745062_a_at) / RFU FAM174B (11720279_a_at) / Fold change /veh FAM174B (11720279_a_at) / RFU TMPRSS4 (11748680_a_at) / Fold change /veh TMPRSS4 (11748680_a_at) / RFU FAM212B (11763350_a_at) / Fold change /veh FAM212B (11763350_a_at) / RFU PLEKHG5 (11743358_a_at) / Fold change /veh PLEKHG5 (11743358_a_at) / RFU ZSCAN30 (11745921_a_at) / Fold change /veh ZSCAN30 (11745921_a_at) / RFU CMKLR1 (11741424_a_at) / Fold change /veh CMKLR1 (11741424_a_at) / RFU LOC101060620 /// MAPK8IP1 (11723275_at) / Fold change /veh LOC101060620 /// MAPK8IP1 (11723275_at) / RFU SPTSSB (11747773_x_at) / Fold change /veh SPTSSB (11747773_x_at) / RFU PRSS12 (11739890_at) / Fold change /veh PRSS12 (11739890_at) / RFU BIN1 (11741810_x_at) / Fold change /veh BIN1 (11741810_x_at) / RFU WNT11 (11732464_a_at) / Fold change /veh WNT11 (11732464_a_at) / RFU C10orf10 (11716521_a_at) / Fold change /veh C10orf10 (11716521_a_at) / RFU C5orf56 (11738089_at) / Fold change /veh C5orf56 (11738089_at) / RFU CYB561 (11721691_x_at) / Fold change /veh CYB561 (11721691_x_at) / RFU ANKRD19P (11752326_a_at) / Fold change /veh ANKRD19P (11752326_a_at) / RFU OR2T12 /// OR2T33 /// OR2T8 (11738714_s_at) / Fold change /veh OR2T12 /// OR2T33 /// OR2T8 (11738714_s_at) / RFU VCAN (11748164_a_at) / Fold change /veh VCAN (11748164_a_at) / RFU JSRP1 (11732532_at) / Fold change /veh JSRP1 (11732532_at) / RFU KRTAP10-11 (11738290_x_at) / Fold change /veh KRTAP10-11 (11738290_x_at) / RFU MYO3A (11730013_a_at) / Fold change /veh MYO3A (11730013_a_at) / RFU EBF3 (11725865_a_at) / Fold change /veh EBF3 (11725865_a_at) / RFU CAMK2N1 (11719241_x_at) / Fold change /veh CAMK2N1 (11719241_x_at) / RFU C5orf56 (11738088_a_at) / Fold change /veh C5orf56 (11738088_a_at) / RFU OLFML3 (11715873_a_at) / Fold change /veh OLFML3 (11715873_a_at) / RFU LOC100653217 /// NTM (11731650_a_at) / Fold change /veh LOC100653217 /// NTM (11731650_a_at) / RFU MAPK11 (11762145_a_at) / Fold change /veh MAPK11 (11762145_a_at) / RFU FIZ1 (11724087_x_at) / Fold change /veh FIZ1 (11724087_x_at) / RFU OASL (11726364_x_at) / Fold change /veh OASL (11726364_x_at) / RFU SOX15 (11748057_x_at) / Fold change /veh SOX15 (11748057_x_at) / RFU CD79A (11719716_a_at) / Fold change /veh CD79A (11719716_a_at) / RFU HIST1H1D (11736915_at) / Fold change /veh HIST1H1D (11736915_at) / RFU CASKIN2 (11723855_a_at) / Fold change /veh CASKIN2 (11723855_a_at) / RFU LOC730098 (11760151_x_at) / Fold change /veh LOC730098 (11760151_x_at) / RFU OR4N2 (11742367_at) / Fold change /veh OR4N2 (11742367_at) / RFU PRRT2 (11749266_a_at) / Fold change /veh PRRT2 (11749266_a_at) / RFU SNX32 (11753110_a_at) / Fold change /veh SNX32 (11753110_a_at) / RFU CDHR5 (11726645_a_at) / Fold change /veh CDHR5 (11726645_a_at) / RFU RCAN1 (11760418_a_at) / Fold change /veh RCAN1 (11760418_a_at) / RFU FAM167A (11723789_a_at) / Fold change /veh FAM167A (11723789_a_at) / RFU FAM26E (11764081_at) / Fold change /veh FAM26E (11764081_at) / RFU ISYNA1 (11749810_s_at) / Fold change /veh ISYNA1 (11749810_s_at) / RFU ACY1 (11761880_at) / Fold change /veh ACY1 (11761880_at) / RFU 11764098_at / Fold change /veh 11764098_at / RFU SAMD14 (11745864_x_at) / Fold change /veh SAMD14 (11745864_x_at) / RFU NPB (11741838_a_at) / Fold change /veh NPB (11741838_a_at) / RFU TMPRSS6 (11731388_a_at) / Fold change /veh TMPRSS6 (11731388_a_at) / RFU KRTAP10-2 (11738614_at) / Fold change /veh KRTAP10-2 (11738614_at) / RFU ARHGAP8 /// PRR5-ARHGAP8 (11727945_x_at) / Fold change /veh ARHGAP8 /// PRR5-ARHGAP8 (11727945_x_at) / RFU KRTAP5-7 /// NADSYN1 (11734609_at) / Fold change /veh KRTAP5-7 /// NADSYN1 (11734609_at) / RFU RASL12 (11751679_a_at) / Fold change /veh RASL12 (11751679_a_at) / RFU CDKN2B (11736163_a_at) / Fold change /veh CDKN2B (11736163_a_at) / RFU PRF1 (11729649_at) / Fold change /veh PRF1 (11729649_at) / RFU, ZNF638 /// ZNF638-IT1 / Fold change vs veh, ZNF638 /// ZNF638-IT1 / RFU, PANK3 / Fold change vs veh, PANK3 / RFU, SH3YL1 / Fold change vs veh, SH3YL1 / RFU, ZEB2 / Fold change vs veh, ZEB2 / RFU, NRIP1 / Fold change vs veh, NRIP1 / RFU, PTTG1IP / Fold change vs veh, PTTG1IP / RFU, CAPN2 / Fold change vs veh, CAPN2 / RFU, MED14 / Fold change vs veh, MED14 / RFU, SNORA58 / Fold change vs veh, SNORA58 / RFU, C1orf63 / Fold change vs veh, C1orf63 / RFU, LRRFIP1 / Fold change vs veh, LRRFIP1 / RFU, NDUFAF7 / Fold change vs veh, NDUFAF7 / RFU, SLC12A2 / Fold change vs veh, SLC12A2 / RFU, IBTK / Fold change vs veh, IBTK / RFU, ESF1 / Fold change vs veh, ESF1 / Fold change vs veh, TMEM50B / RFU, TAOK1 / Fold change vs veh, TAOK1 / RFU, ACBD3 / Fold change vs veh, ACBD3 / RFU, TMA16 / Fold change vs veh, TMA16 / RFU, RWDD3 / Fold change vs veh, RWDD3 / RFU, BCAT1 / Fold change vs veh, BCAT1 / RFU, EDEM3 / Fold change vs veh, EDEM3 / RFU, TMEM33 / Fold change vs veh, TMEM33 / RFU, WDR75 / Fold change vs veh, WDR75 / RFU, AHCTF1 / Fold change vs veh, AHCTF1 / RFU, TFRC / Fold change vs veh, TFRC / RFU, ZDHHC17 / Fold change vs veh, ZDHHC17 / RFU, NOM1 / Fold change vs veh, NOM1 / RFU, ARL8B / Fold change vs veh, ARL8B / RFU, ZBTB11 / Fold change vs veh, ZBTB11 / RFU, TAMM41 / Fold change vs veh, TAMM41 / RFU, KIAA1704 /// LOC100996395 / Fold change vs veh, KIAA1704 /// LOC100996395 / RFU, ING1 / Fold change vs veh, ING1 / RFU, TRMT61B / Fold change vs veh, TRMT61B / RFU, FUBP3 / Fold change vs veh, FUBP3 / RFU, TP53 / Fold change vs veh, TP53 / RFU, TNKS2 / Fold change vs veh, TNKS2 / RFU, ZFP14 / Fold change vs veh, ZFP14 / RFU, ACTR2 / Fold change vs veh, ACTR2 / RFU, PPP3R1 / Fold change vs veh, PPP3R1 / RFU, PIK3R1 / Fold change vs veh, PIK3R1 / RFU, HNRNPA1 / Fold change vs veh, HNRNPA1 / RFU, RNF170 / Fold change vs veh, RNF170 / RFU, ZNF28 / Fold change vs veh, ZNF28 / RFU, RNGTT / Fold change vs veh, RNGTT / RFU, OGT / Fold change vs veh, OGT / RFU, BRD1 / Fold change vs veh, BRD1 / RFU, MARS / Fold change vs veh, MARS / RFU, ZNF655 / Fold change vs veh, ZNF655 / RFU, FAHD1 / Fold change vs veh, FAHD1 / RFU, BDP1 / Fold change vs veh, BDP1 / RFU, LRRCC1 / Fold change vs veh, LRRCC1 / RFU, ARID1A / Fold change vs veh, ARID1A / RFU, ZNF146 / Fold change vs veh, ZNF146 / RFU, ZNF330 / Fold change vs veh, ZNF330 / RFU, GPN3 / Fold change vs veh, GPN3 / RFU, C9orf123 / Fold change vs veh, C9orf123 / RFU, N4BP2L2 / Fold change vs veh, N4BP2L2 / RFU, ARFIP1 / Fold change vs veh, ARFIP1 / RFU, FAM179B / Fold change vs veh, FAM179B / RFU, BCL10 / Fold change vs veh, BCL10 / RFU, UHRF1BP1L / Fold change vs veh, UHRF1BP1L / RFU, BET1 / Fold change vs veh, BET1 / RFU, CNOT2 / Fold change vs veh, CNOT2 / RFU, ZNF268 / Fold change vs veh, ZNF268 / Fold change vs veh, ZNF507 / RFU, DGCR2 / Fold change vs veh, DGCR2 / RFU, WDSUB1 / Fold change vs veh, WDSUB1 / Fold change vs veh, HSP90B1 /// MIR3652 / RFU, ADSS / Fold change vs veh, ADSS / RFU, GK / Fold change vs veh, GK / RFU, ZNF148 / Fold change vs veh, ZNF148 / RFU, TAF9 / Fold change vs veh, TAF9 / RFU, SLC1A5 / Fold change vs veh, SLC1A5 / RFU, SLMO2 / Fold change vs veh, SLMO2 / RFU, ABCC4 / Fold change vs veh, ABCC4 / RFU, LOC101060439 /// RAP1B / Fold change vs veh, LOC101060439 /// RAP1B / RFU, RFX7 / Fold change vs veh, RFX7 / RFU, GTPBP10 / Fold change vs veh, GTPBP10 / RFU, CNEP1R1 / Fold change vs veh, CNEP1R1 / RFU, BIVM-ERCC5 /// ERCC5 / Fold change vs veh, BIVM-ERCC5 /// ERCC5 / RFU, ILF3 / Fold change vs veh, ILF3 / RFU 11762660_at / Fold change /veh 11762660_at / RFU VCAN (11757783_s_at) / Fold change /veh VCAN (11757783_s_at) / RFU DDX43 (11728927_at) / Fold change /veh DDX43 (11728927_at) / RFU KRT8 (11758188_x_at) / Fold change /veh KRT8 (11758188_x_at) / RFU NKD1 (11759106_at) / Fold change /veh NKD1 (11759106_at) / RFU SRD5A1 (11742802_a_at) / Fold change /veh SRD5A1 (11742802_a_at) / RFU TPSAB1 /// TPSB2 (11721975_s_at) / Fold change /veh TPSAB1 /// TPSB2 (11721975_s_at) / RFU GSTM3 (11746129_a_at) / Fold change /veh GSTM3 (11746129_a_at) / RFU IL23R (11737362_x_at) / Fold change /veh IL23R (11737362_x_at) / RFU TMEM51 (11727254_a_at) / Fold change /veh TMEM51 (11727254_a_at) / RFU PIWIL2 (11732686_x_at) / Fold change /veh PIWIL2 (11732686_x_at) / RFU ORM1 (11744905_x_at) / Fold change /veh ORM1 (11744905_x_at) / RFU CCDC152 (11743942_at) / Fold change /veh CCDC152 (11743942_at) / RFU ECM1 (11717891_a_at) / Fold change /veh ECM1 (11717891_a_at) / RFU IL23R (11748794_a_at) / Fold change /veh IL23R (11748794_a_at) / RFU TNFAIP8L3 (11732012_x_at) / Fold change /veh TNFAIP8L3 (11732012_x_at) / RFU MBOAT4 (11741988_at) / Fold change /veh MBOAT4 (11741988_at) / RFU 11764193_at / Fold change /veh 11764193_at / RFU TMEM53 (11763286_at) / Fold change /veh TMEM53 (11763286_at) / RFU MAGEB2 (11727129_at) / Fold change /veh MAGEB2 (11727129_at) / RFU TMEM200A (11744735_a_at) / Fold change /veh TMEM200A (11744735_a_at) / RFU CCDC152 (11751479_a_at) / Fold change /veh CCDC152 (11751479_a_at) / RFU FAM211A (11726209_a_at) / Fold change /veh FAM211A (11726209_a_at) / RFU RGS16 (11746705_a_at) / Fold change /veh RGS16 (11746705_a_at) / RFU VCAN (11755009_s_at) / Fold change /veh VCAN (11755009_s_at) / RFU RHOB (11743442_s_at) / Fold change /veh RHOB (11743442_s_at) / RFU RGS16 (11720943_a_at) / Fold change /veh RGS16 (11720943_a_at) / RFU RGS16 (11720944_at) / Fold change /veh RGS16 (11720944_at) / RFU, VPS4B / Fold change vs veh, VPS4B / RFU, CREB1 / Fold change vs veh, CREB1 / RFU, DNAJC13 / Fold change vs veh, DNAJC13 / RFU, GNAQ / Fold change vs veh, GNAQ / RFU, CDK5R1 / Fold change vs veh, CDK5R1 / RFU, ZRANB3 / Fold change vs veh, ZRANB3 / RFU, CUL4A / Fold change vs veh, CUL4A / RFU, CCNY / Fold change vs veh, CCNY / RFU, UFL1 / Fold change vs veh, UFL1 / RFU, COG3 / Fold change vs veh, COG3 / RFU, DIAPH2 / Fold change vs veh, DIAPH2 / RFU, SKA2 / Fold change vs veh, SKA2 / RFU, AFF3 / Fold change vs veh, AFF3 / RFU, LMF1 / Fold change vs veh, LMF1 / RFU, IPO11 / Fold change vs veh, IPO11 / RFU, DFFB / Fold change vs veh, DFFB / RFU, FOXP1 / Fold change vs veh, FOXP1 / RFU, CARD8 / Fold change vs veh, CARD8 / RFU, STRN3 / Fold change vs veh, STRN3 / RFU, ADK / Fold change vs veh, ADK / RFU, RASSF2 / Fold change vs veh, RASSF2 / RFU, WIPF1 / Fold change vs veh, WIPF1 / RFU, LARP1B / Fold change vs veh, LARP1B / RFU, RASA1 / Fold change vs veh, RASA1 / RFU, RB1 / Fold change vs veh, RB1 / RFU, PPFIA1 / Fold change vs veh, PPFIA1 / RFU, MAT2A / Fold change vs veh, MAT2A / RFU, CCT5 / Fold change vs veh, CCT5 / RFU, WDR92 / Fold change vs veh, WDR92 / RFU, CUX1 / Fold change vs veh, CUX1 / RFU, TTC7A / Fold change vs veh, TTC7A / RFU, TMEM135 / Fold change vs veh, TMEM135 / RFU, DEPTOR / Fold change vs veh, DEPTOR / RFU, CPM / Fold change vs veh, CPM / RFU, DNAJB6 / Fold change vs veh, DNAJB6 / RFU, CACNA2D3 / Fold change vs veh, CACNA2D3 / RFU, DTX4 / Fold change vs veh, DTX4 / RFU, TFCP2 / Fold change vs veh, TFCP2 / RFU, GMCL1 /// GMCL1P1 / Fold change vs veh, GMCL1 /// GMCL1P1 / RFU, AEBP2 / Fold change vs veh, AEBP2 / RFU, SNHG1 /// SNORD22 /// SNORD25 /// SNORD26 /// SNORD27 /// SNORD28 /// SNORD29 /// SNORD31 / Fold change vs veh, SNHG1 /// SNORD22 /// SNORD25 /// SNORD26 /// SNORD27 /// SNORD28 /// SNORD29 /// SNORD31 / Fold change (Aza/veh), C12orf56 (ProbeSet 11735607_a_at) / Fold change (ACY-1035/veh), C12orf56 (ProbeSet 11735607_a_at) / Fold change (Aza/veh), FGFR1OP (ProbeSet 11751329_s_at) / Fold change (ACY-1035/veh), FGFR1OP (ProbeSet 11751329_s_at) / Fold change (Aza/veh), VPS36 (ProbeSet 11739960_a_at) / Fold change (ACY-1035/veh), VPS36 (ProbeSet 11739960_a_at) / RFU SYPL1 (11715823_x_at) / Fold change /veh SYPL1 (11715823_x_at) / RFU IGFBP7 (11715501_s_at) / Fold change /veh IGFBP7 (11715501_s_at) / RFU REEP3 (11722064_at) / Fold change /veh REEP3 (11722064_at) / RFU IGLL1 (11728026_x_at) / Fold change /veh IGLL1 (11728026_x_at): dose or concentration left out as unconfirmed
Settings: ProbeSet 11734937_a_at; LIST B

For Nc1ncn([C@@H]2O[C@H](CO)[C@@H](O)[C@H]2O)c(=O)n1 [azacitidine], the “RFU, CNOT2” value was 887.01 RFU.
